Here are results for 18 compounds from US20260015358A1, “BICYCLIC DERIVATIVES, COMPOSITIONS AND USES THEREOF” (Danatlas Pharmaceuticals Co., Ltd., priority 2023, published 2026).

Structures are written as SMILES.

The target of this assay is WRN [UniPro: Q14191 (WRN_HUMAN), N500-C946] (Homo sapiens (Human), UniProt Q14191). As to the kind of experiment: WRN unwinding assay (FORKF DNA, fluorescence). The class given is biochemical. The settings on record: Table 14. As to the method: WRN unwinding assay was initiated to evaluate potential inhibitory effect of compounds for WEN helicase activity. WRN [UniPro: Q14191 (WRN_HUMAN), N500-C946] was expressed and purified in insect system and stored at −80° C. in aliquots. […] Compounds dissolved in DMSO (Sigma, D8418) were plated into a 96-well intermediate plate (BioFil, VWP-032-096) for 3-fold serial titration for 10 points using DMSO, and well-to-well transfer the titrated compounds into another 96-well intermediate plate including assay buffer in advance. Shake the 96-well intermediate plate at 600 rpm for 10 min. to fully mix. Specifically, a 3× working mixture of WRN was diluted to a concentration of 60 nM in assay buffer. […] After centrifuging at 1000 rpm and shaking at 500 rpm, the assay plate was pre-incubated for 30 min. Then, […] 3×FORKF DNA and ATP working mixture was dispensed into assay plate. Plate was sealed, centrifuged and incubated for an additional 40 min. at 25° C. […] Each concentration of compound was tested in duplicates in the assay plate. Average fluorescence signal of high control (Wells with 1% DMSO) was calculated as High Control (HC). Average fluorescence signal of low control (Wells with no WRN protein) was calculated as Low control (LC).
WRN [UniPro: Q14191 (WRN_HUMAN), N500-C946], sequence (Q14191 500-946): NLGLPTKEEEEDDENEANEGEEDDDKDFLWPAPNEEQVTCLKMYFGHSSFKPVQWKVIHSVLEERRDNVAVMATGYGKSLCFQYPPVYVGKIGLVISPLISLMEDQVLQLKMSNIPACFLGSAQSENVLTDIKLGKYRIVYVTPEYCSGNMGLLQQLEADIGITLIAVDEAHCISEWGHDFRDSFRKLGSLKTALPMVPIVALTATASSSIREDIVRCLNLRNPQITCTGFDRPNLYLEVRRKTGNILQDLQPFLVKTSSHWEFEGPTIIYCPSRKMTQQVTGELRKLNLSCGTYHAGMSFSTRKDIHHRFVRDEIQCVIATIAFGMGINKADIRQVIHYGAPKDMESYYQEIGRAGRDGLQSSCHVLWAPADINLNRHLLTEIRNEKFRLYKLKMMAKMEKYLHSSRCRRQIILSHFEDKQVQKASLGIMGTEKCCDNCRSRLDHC
IC50 values were determined by fitting the data to the standard 4 parameters with Hill Slope using GraphPad Prism software.
The term IC50 denotes the concentration needed to halve the response being measured. Low values mean inhibition by little substance, high ones a need for much substance. Compound `CCc1c(N2CCN(C(=O)c3cn(C)c(=O)n(C)c3=O)CC2)c(=O)n2nc(C3=CCOCC3)nc2n1CC(=O)Nc1ccc(C(F)(F)F)cc1Cl` [Example 51, N-(2-Chloro-4-(trifluoromethyl)phenyl)-2-(2-(3,6-dihydro-2H-pyran-4-yl)-6-(4-(1,3-dimethyl-2,4-dioxo-1,2,3,4-tetrahydropyrimidine-5-carbonyl)piperazin-1-yl)-5-ethyl-7-oxo-[1,2,4]triazolo[1,5-a]pyrimidin-4(7H)-yl)acetamide] showed a half-maximal inhibitory concentration (IC50) greater than 1000 nM. In the case of `CCc1c(N2CCN(C(=O)CNC(=O)c3ccccc3F)CC2)c(=O)n2nc(C3=CCOCC3)nc2n1CC(=O)Nc1ncc(C(F)(F)F)s1` [Example 158, N-(2-(4-(2-(3,6-Dihydro-2H-pyran-4-yl)-5-ethyl-7-oxo-4-(2-oxo-2-((5-(trifluoromethyl)thiazol-2-yl)amino)ethyl)-4,7-dihydro-[1,2,4]triazolo[1,5-a]pyrimidin-6-yl)piperazin-1-yl)-2-oxoethyl)-2-fluorobenzamide], the IC50 lay within 100 to 1000 nM. The same measure for `CCc1c(N2CCN(C(=O)CNC(=O)c3ccccc3F)CC2)c(=O)n2nc(N3CC(C#N)C3)nc2n1CC(=O)Nc1ccc(C(F)(F)F)cc1Cl` [Example 243, N-(2-(4-(4-(2-((2-Chloro-4-(trifluoromethyl)phenyl)amino)-2-oxoethyl)-2-(3-cyanoazetidin-1-yl)-5-ethyl-7-oxo-4,7-dihydro-[1,2,4]triazolo[1,5-a]pyrimidin-6-yl)piperazin-1-yl)-2-oxoethyl)-2-fluorobenzamide]: 100 to 1000 nM; for `CCc1c(N2CCN(C(=O)CNC(=O)c3ccccc3F)CC2)c(=O)n2nc(N3CCOCC3)nc2n1CC(=O)Nc1ccc(C(F)(F)F)cc1Cl` [Example 245, N-(2-(4-(4-(2-((2-Chloro-4-(trifluoromethyl)phenyl)amino)-2-oxoethyl)-5-ethyl-2-morpholino-7-oxo-4,7-dihydro-[1,2,4]triazolo[1,5-a]pyrimidin-6-yl)piperazin-1-yl)-2-oxoethyl)-2-fluorobenzamide]: less than 100 nM; for `CCc1c(N2CCC3(CCN(C(=O)CNC(=O)c4ccccc4)C3)C2)c(=O)n2nc(C3=CCOCC3)nc2n1CC(=O)Nc1ccc(C(F)(F)F)cc1Cl` (stereo not drawn) [Example 139, N-(2-(7-(4-(2-((2-Chloro-4-(trifluoromethyl)phenyl)amino)-2-oxoethyl)-2-(3,6-dihydro-2H-pyran-4-yl)-5-ethyl-7-oxo-4,7-dihydro-[1,2,4]triazolo[1,5-a]pyrimidin-6-yl)-2,7-diazaspiro[4.4]nonan-2-yl)-2-oxoethyl)benzamide]: greater than 1000 nM.

`CCc1c(N2CCN(C(=O)CNC(=O)CN3CCCC3)CC2)c(=O)n2nc(C3=CCOCC3)nc2n1CC(=O)Nc1ccc(C(F)(F)F)cc1Cl` [Example 339, N-(2-Chloro-4-(trifluoromethyl)phenyl)-2-(2-(3,6-dihydro-2H-pyran-4-yl)-5-ethyl-7-oxo-6-(4-((2-(pyrrolidin-1-yl)acetyl)glycyl)piperazin-1-yl)-[1,2,4]triazolo[1,5-a]pyrimidin-4(7H)-yl)acetamide] registered an IC50 of 100 to 1000 nM. Then `CCc1c(N2CCN(C(=O)c3nnc(-c4ccccc4F)[nH]3)CC2)c(=O)n2nc(C3=CCOCC3)nc2n1CC(=O)Nc1ccc(C(F)(F)F)cc1F` [Example 309, 2-(2-(3,6-Dihydro-2H-pyran-4-yl)-5-ethyl-6-(4-(5-(2-fluorophenyl)-4H-1,2,4-triazole-3-carbonyl)piperazin-1-yl)-7-oxo-[1,2,4]triazolo[1,5-a]pyrimidin-4(7H)-yl)-N-(2-fluoro-4-(trifluoromethyl)phenyl)acetamide], with 100 to 1000 nM; and `CCc1c(N2CCN(C(=O)CNC(=O)c3ccccc3F)CC2)c(=O)n2nc(C3=CCOCC3)nc2n1CC(=O)Nc1nnc(C2CC2)s1` [Example 156, N-(2-(4-(4-(2-((5-Cyclopropyl-1,3,4-thiadiazol-2-yl)amino)-2-oxoethyl)-2-(3,6-dihydro-2H-pyran-4-yl)-5-ethyl-7-oxo-4,7-dihydro-[1,2,4]triazolo[1,5-a]pyrimidin-6-yl)piperazin-1-yl)-2-oxoethyl)-2-fluorobenzamide], with greater than 1000 nM; and `CCc1c(N2CCN(/C(=N\O)c3ncccc3F)CC2)c(=O)n2nc(C3=CCOCC3)nc2n1CC(=O)Nc1ccc(C(F)(F)F)cc1Cl` [Example 21, (Z)—N-(2-Chloro-4-(trifluoromethyl)phenyl)-2-(2-(3,6-dihydro-2H-pyran-4-yl)-5-ethyl-6-(4-((3-fluoropyridin-2-yl) (hydroxyimino)methyl)piperazin-1-yl)-7-oxo-[1,2,4]triazolo[1,5-a]pyrimidin-4(7H)-yl)acetamide], with greater than 1000 nM.

The compound `CCc1c(N2CCN(C(=O)CNC(=O)c3ccccc3F)CC2)c(=O)n2nc(C3=CCOCC3)nc2n1CC(=O)Nc1ccc(S(F)(F)(F)(F)F)cc1C` [Example 145, N-(2-(4-(2-(3,6-Dihydro-2H-pyran-4-yl)-5-ethyl-4-(2-((2-methyl-4-(pentafluoro-16-sulfanyl)phenyl)amino)-2-oxoethyl)-7-oxo-4,7-dihydro-[1,2,4]triazolo[1,5-a]pyrimidin-6-yl)piperazin-1-yl)-2-oxoethyl)-2-fluorobenzamide] displayed an IC50 of 100 to 1000 nM.

In turn, `CCOC(=O)N1CCN(c2c(CC)n(CC(=O)Nc3ccc(C(F)(F)F)cc3Cl)c3nc(C4=CCOCC4)nn3c2=O)CC1` [Example 40, Ethyl 4-(4-(2-((2-chloro-4-(trifluoromethyl)phenyl)amino)-2-oxoethyl)-2-(3,6-dihydro-2H-pyran-4-yl)-5-ethyl-7-oxo-4,7-dihydro-[1,2,4]triazolo[1,5-a]pyrimidin-6-yl)piperazine-1-carboxylate] had an IC50 greater than 1000 nM. Then `CCc1c(N2CCN(C(=O)C3CC3)CC2)c(=O)n2nc(C3=CCOCC3)nc2n1CC(=O)Nc1ccc(C(F)(F)F)cc1Cl` [Example 13, N-(2-Chloro-4-(trifluoromethyl)phenyl)-2-(6-(4-(cyclopropanecarbonyl)piperazin-1-yl)-2-(3,6-dihydro-2H-pyran-4-yl)-5-ethyl-7-oxo-[1,2,4]triazolo[1,5-a]pyrimidin-4(7H)-yl)acetamide], with 100 to 1000 nM. For the compound `CCc1c(N2CCN(C(=O)CNC(=O)c3ccc(Cl)cc3Cl)CC2)c(=O)n2nc(C3=CCOCC3)nc2n1CC(=O)Nc1ccc(C(F)(F)F)cc1Cl` [Example 127, 2,4-Dichloro-N-(2-(4-(4-(2-((2-chloro-4-(trifluoromethyl)phenyl)amino)-2-oxoethyl)-2-(3,6-dihydro-2H-pyran-4-yl)-5-ethyl-7-oxo-4,7-dihydro-[1,2,4]triazolo[1,5-a]pyrimidin-6-yl)piperazin-1-yl)-2-oxoethyl)benzamide], the IC50 was in the range of 100 to 1000 nM. The compound `CCc1c(N2CCN(C(=O)CNC(=O)OC(C)C)CC2)c(=O)n2nc(C3=CCOCC3)nc2n1CC(=O)Nc1ccc(C(F)(F)F)cc1Cl` [Example 172, Isopropyl (2-(4-(4-(2-((2-chloro-4-(trifluoromethyl)phenyl)amino)-2-oxoethyl)-2-(3,6-dihydro-2H-pyran-4-yl)-5-ethyl-7-oxo-4,7-dihydro-[1,2,4]triazolo[1,5-a]pyrimidin-6-yl)piperazin-1-yl)-2-oxoethyl)carbamate] gave an IC50 of 100 to 1000 nM.

As for `CCc1c(N2CCN(C(=O)NCC3CC3)CC2)c(=O)n2nc(C3=CCOCC3)nc2n1CC(=O)Nc1ccc(C(F)(F)F)cc1Cl` [Example 24, 4-(4-(2-((2-Chloro-4-(trifluoromethyl)phenyl)amino)-2-oxoethyl)-2-(3,6-dihydro-2H-pyran-4-yl)-5-ethyl-7-oxo-4,7-dihydro-[1,2,4]triazolo[1,5-a]pyrimidin-6-yl)-N-(cyclopropylmethyl)piperazine-1-carboxamide], the IC50 lay within 100 to 1000 nM. Then `CCc1c(N2CCN(C(=O)C(C)(C)NC(=O)c3ccccc3)CC2)c(=O)n2nc(C3=CCOCC3)nc2n1CC(=O)Nc1ccc(C(F)(F)F)cc1Cl` [Example 137, N-(1-(4-(4-(2-((2-Chloro-4-(trifluoromethyl)phenyl)amino)-2-oxoethyl)-2-(3,6-dihydro-2H-pyran-4-yl)-5-ethyl-7-oxo-4,7-dihydro-[1,2,4]triazolo[1,5-a]pyrimidin-6-yl)piperazin-1-yl)-2-methyl-1-oxopropan-2-yl)benzamide], with greater than 1000 nM. Then `CCc1c(N2CCN(C(=O)CCO)CC2)c(=O)n2nc(C3=CCOCC3)nc2n1CC(=O)Nc1ccc(C(F)(F)F)cc1Cl` [Example 16, N-(2-Chloro-4-(trifluoromethyl)phenyl)-2-(2-(3,6-dihydro-2H-pyran-4-yl)-5-ethyl-6-(4-(3-hydroxypropanoyl)piperazin-1-yl)-7-oxo-[1,2,4]triazolo[1,5-a]pyrimidin-4(7H)-yl)acetamide], with 100 to 1000 nM; and `CCc1c(N2CCN(C(=O)CNC(=O)c3ccccc3)CC2)c(=O)n2nc(Br)nc2n1CC(=O)Nc1ccc(C(F)(F)F)cc1Cl` [Example 230, N-(2-(4-(2-Bromo-4-(2-((2-chloro-4-(trifluoromethyl)phenyl)amino)-2-oxoethyl)-5-ethyl-7-oxo-4,7-dihydro-[1,2,4]triazolo[1,5-a]pyrimidin-6-yl)piperazin-1-yl)-2-oxoethyl)benzamide], with 100 to 1000 nM.
